Assay results: PMC8301776, “New Hybrid Compounds Combining Fragments of Usnic Acid and Monoterpenoids for Effective Tyrosyl-DNA Phosphodiesterase 1 Inhibition” (Biomolecules, 2021)
Entries after “also recorded” stand apart in the source; their conditions may differ.

Columns and labels:
Krebs 2 ascites tumors = system: Krebs 2 ascites tumors; design: method as in PMID 33871444; details: Krebs 2 ascites tumors in mice; cited from earlier work
HEK293A TDP1-/- cells = test: Topotecan cytotoxicity alone or in combination, colorimetric test, HEK293A TDP1-/- clones C6, G6, F7; format: cell-based, human
From the text: TDP1 knockout HEK293A clones were obtained in the same way as the previously described TDP1 knockout HEK293FT clones. Briefly, two 20-nt protospacer sequences flanking the first protein coding exon of human TDP1 gene were selected using https://www.benchling.com/ (accessed date 1 November 2020). Oligonucleotides were cloned in plasmid pSpCas9(BB)-2A-GFP (PX458). pSpCas9(BB)-2A-GFP (PX458) was a gift from Feng Zhang (Addgene plasmid # 48138; http://n2t.net/addgene:48138; RRID: Addgene_48138). HEK293A cells were transfected with plasmids pX458-TDP1-gRNA1 and pX458-TDP1-gRNA2 (0.25 µg of each) using Lipofectamine 3000 Reagent (Thermofisher Scientific, Waltham, MA, USA). Growth medium contained DMEM/F12 (Thermofisher Scientific, Waltham, MA, USA) 1:1, 10% FBS (Thermofisher Scientific, Waltham, MA, USA), 100 U/mL penicillin–streptomycin (Thermofisher Scientific, Waltham, MA, USA), and 1 × GlutaMAX (Thermofisher Scientific, Waltham, MA, USA). […] Single cell clones grew for two weeks, and genome DNA was analyzed on CRISPR/Cas9-mediated deletions in TDP1 gene by PCR amplification of target region with primers: TDP1-scF 5′-[…]-3′ and TDP1-scR 5′-[…]-3′. […]
Cytotoxicity of the compounds was examined against human cell lines HEK293A (human embryonic kidney)—WT and TDP1-deficient (Tdp1-/-), and HeLa (cervical cancer) using an EZ4U colorimetric tests (Biomedica, Vienna, Austria) or xCELLigence DP Real-Time Cell Analyzer (ACEA Biosciences, Santa Clara, CA, USA). […] After formation of a 30–50% monolayer, tested compounds were added to the medium, and the cell culture was monitored for 3 days. […]
In our previous work, the cytotoxic effect of Tpc and the TDP1 inhibitors, monoterpene 3-carene derivatives, was established; both were measured separately and jointly using a panel of HEK293FT TDP1 knockout isogenic clones. […] No cleavage activity was detected in the clones’ C6, G6, and F7 cell extracts in contrast to control WT and purified TDP1. […]

HeLa cells [1] = test: Intrinsic cytotoxicity, EZ4U colorimetric test, HeLa; format: cell-based, human; details: Figure 6
Protocol: (§1) Cytotoxicity of the compounds was examined against human cell lines HEK293A (human embryonic kidney)—WT and TDP1-deficient (Tdp1-/-), and HeLa (cervical cancer) using an EZ4U colorimetric tests (Biomedica, Vienna, Austria) or xCELLigence DP Real-Time Cell Analyzer (ACEA Biosciences, Santa Clara, CA, USA). Cell lines were obtained from the Russian Cell Culture Collection (RCCC) Institute of Cytology RAS (St. Petersburg, Russia). The cells were grown in DMEM/F12 medium (Thermo Fisher Scientific, Waltham, MA, USA), with 1× GlutaMAX (Thermo Fisher Scientific, Waltham, MA, USA), 50 IU/mL penicillin, and 50 μg/mL streptomycin (Thermo Fisher Scientific, Waltham, MA, USA), and in the presence of 10% fetal bovine serum (Biolot, Saint-Petersburg, Russia) in 5% CO2 atmosphere. Control cells were grown in the presence of 1% DMSO where indicated. After formation of a 30–50% monolayer, tested compounds were added to the medium, and the cell culture was monitored for 3 days. […] The measurements were carried out in three parallel experiments.
(§2) The intrinsic cytotoxicity of the four lead compounds (11a–d) was examined using a colorimetric test (Figure 6).

HEK293A WT cells [2] = test: Topotecan cytotoxicity in combination with TDP1 inhibitors, colorimetric test, HEK293A WT; format: cell-based, human
Protocol: as §1
There was no difference between WT and the mutant cells.

HEK293A cells = test: Intrinsic cytotoxicity, EZ4U colorimetric test, HEK293A; format: cell-based, human; details: Figure 6
Protocol: as §1, §2

HeLa cells [3] = test: Topotecan cytotoxicity in combination with TDP1 inhibitors, colorimetric test, HeLa; format: cell-based, human
Protocol: as §1
The combination index (CI) values were determined for different concentrations of Tpc and the enamines 11a–d at 2 and 5 μM. […] The CI values were calculated with the CompuSyn version 1.0 software. The CI plot at different fraction-affected (Fa) was determined for Tpc (0.3, 0.5, 1, 2, and 4 μM) and the Tdp1 inhibitors (2 and 5 μM).

HEK293A WT cells [4] = test: xCELLigence impedance-based real-time cell growth assay, alone or with Tpc; design: species or system human
Protocol: as §1
This stimulation was also confirmed for HEK293A WT cells using the xCELLigence DP Real-Time Cell Analyzer impedance-based assay (Figure 9). […] The stimulation effect depends on the concentration of compounds 11a and 11c (Figure 9B,C).
(A). Cell growth of HEK293A cells in the control wells without compounds added (black), with 50 nM Tpc (red), 40 µM 11a (dark green), or 40 µ M 11c (violet). (B,C) Cell growth of HEK293A cells with 50 nM Tpc only (red) and in combination with 5 µM (green), 10 µM (dark blue), 20 µM (pink), or 40 µM (blue) 11a (B) or 11c (C).

TDP1 = biological target: T1, TDP1 (Homo sapiens, UniProt Q9NUW8); test: Real-time fluorescence detection of TDP1 activity (FAM/BHQ1 oligonucleotide biosensor); format: biochemical; details: as repeated in Table S1; read-out: IC50
T1 construct: made in house; host or cells: E. coli

Lewis lung carcinoma = details: mice with Lewis lung carcinoma; various administration schedules; cited from earlier work

T1 sequence (Q9NUW8 whole entry): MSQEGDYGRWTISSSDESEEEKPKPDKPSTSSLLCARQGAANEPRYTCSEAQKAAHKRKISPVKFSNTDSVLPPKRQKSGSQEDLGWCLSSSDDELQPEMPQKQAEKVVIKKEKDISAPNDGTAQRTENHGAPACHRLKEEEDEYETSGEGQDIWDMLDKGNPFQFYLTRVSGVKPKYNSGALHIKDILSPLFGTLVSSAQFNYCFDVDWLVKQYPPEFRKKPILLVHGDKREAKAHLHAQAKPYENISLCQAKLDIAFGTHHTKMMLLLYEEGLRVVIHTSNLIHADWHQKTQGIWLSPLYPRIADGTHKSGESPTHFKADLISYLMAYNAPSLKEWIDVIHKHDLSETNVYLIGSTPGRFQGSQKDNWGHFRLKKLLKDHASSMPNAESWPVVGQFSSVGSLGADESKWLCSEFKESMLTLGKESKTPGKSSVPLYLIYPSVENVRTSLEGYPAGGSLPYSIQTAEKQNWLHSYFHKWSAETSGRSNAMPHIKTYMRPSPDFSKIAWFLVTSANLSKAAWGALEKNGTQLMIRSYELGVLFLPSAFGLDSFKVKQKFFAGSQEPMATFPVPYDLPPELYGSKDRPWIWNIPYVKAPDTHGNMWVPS

Compound: CC[C@@]1(O)C(=O)OCc2c1cc1n(c2=O)Cc2cc3c(CN(C)C)c(O)ccc3nc2-1 [Tpc, topotecan, reference compound]
- antitumor effect, given separately (Krebs 2 ascites tumors): antitumor effect
- sensitivity of TDP1-/- cells to Tpc compared to WT (HEK293A TDP1-/- cells; HEK293A clones C6, G6, F7 vs WT, colorimetric test): more sensitive to Tpc compared to WT

Compound: CC(=O)c1c(O)c(C)c(O)c2c1OC1=CC(=O)/C(=C(/C)NCCC3=CC[C@H]4C[C@@H]3C4(C)C)C(=O)[C@@]12C [11c, (2R,4E)-10-Acetyl-4-[1-({2-[(1R,5S)-6,6-dimethylbicyclo[3.1.1]hept-2-en-2-yl]ethyl}amino)ethylidene]-11,13-dihydroxy-2,12-dimethyl-8-oxatricyclo[7.4.0.0^2,7]trideca-1(13),6,9,11-tetraene-3,5-dione]
- intrinsic cytotoxicity (in words) (HeLa cells [1]): non-cytotoxic
- effect on Tpc cytotoxicity / cell growth, compared to Tpc (in words) (HEK293A WT cells [2]): reduced it; also recorded: stimulation of cell growth; also recorded: stimulated cell growth
- intrinsic cytotoxicity (in words) (HEK293A cells): non-cytotoxic
- effect on cell growth in combination with Tpc, compared to Tpc (in words) (HEK293A TDP1-/- cells; HEK293A Tdp1-/- cells, combination with Tpc): stimulation of cell growth
- effect on Tpc cytotoxicity (in words) (HeLa cells [3]): enhanced topotecan’s cytotoxicity; also recorded: synergistic effect; also recorded: enhanced Tpc cytotoxicity
- effect on cell growth with Tpc, compared to Tpc (HEK293A WT cells [4]; 50 nM Tpc + 5, 10, 20 or 40 µM compound): stimulated cell growth
- toxicity of compound alone (in words) (HEK293A WT cells [4]; 40 µM compound): non-toxic
- IC50 (TDP1): 320 nM

Compound: CC(=O)c1c(O)c(C)c(O)c2c1OC1=CC(=O)/C(=C(/C)NCCCc3cc(C(C)(C)C)c(O)c(C(C)(C)C)c3)C(=O)[C@@]12C [5b]
- antimetastatic activity (Lewis lung carcinoma): strong antimetastatic activity
